The values below come from US7576241B2, “Derivatives of amidines, their preparation, their use as medicaments and the pharmaceutical compositions containing them” (Ipsen Pharma S.A.S., priority 1998, dated 2009).

With `COc1cc(C=CCNCCc2ccc(N=C(N)c3cccs3)cc2)cc(OC)c1O.Cl.Cl` [Example 62, N′-[4-(2-{[3-(4-hydroxy-3,5-dimethoxyphenyl)-2-propenyl]amino}ethyl)phenyl]-2-thiophenecarboximidamide dihydrochloride], the melting point (as a rule, the temperature of the solid-liquid transition) lay in the range of 182 to 184 °C.
To `CC(=O)Nc1ccc(CNCCc2ccc(N=C(N)c3cccs3)cc2)cc1` [Example 58, N-(4-{[(4-{[amino(2-thienyl)methylidene]amino}phenethyl)-amino]methyl}phenyl)acetamide] belongs 237.8 to 239 °C.
To `COc1cc(O)c(CNCCc2ccc(N=C(N)c3cccs3)cc2)c(OC)c1` [Example 64, N′-(4-{2-[(2-hydroxy-4,6-dimethoxybenzyl)amino]ethyl}phenyl)-2-thiophenecarboximidamide] belongs more than 230 °C; to `COc1cc(C=CCNCCc2ccc(N=C(N)c3cccs3)cc2)ccc1O.O=C(O)/C=C/C(=O)O.O=C(O)/C=C/C(=O)O` [Example 61, N′-[4-(2-{[3-(4-hydroxy-3-methoxyphenyl)-2-propenyl]amino}ethyl)phenyl]-2-thiophenecarboximidamide difumarate], 174 to 176 °C.
To `NC(=Nc1ccc(CCNC(=O)/C=C/c2ccccc2O)cc1)c1cccs1` [Example 39, (E)-N-(4-{[amino(2-thienyl)methylidene]amino}phenethyl)-3-(2-hydroxyphenyl)-2-propenamide] belongs 145 to 155 °C.
Compound `COc1cc(/C=C/C(=O)NCCc2ccc(N=C(N)c3cccs3)cc2)cc(OC)c1O` [Example 42, (E)-N-(4-{[amino(2-thienyl)methylidene]amino}phenethyl)-3-(4-hydroxy-3,5-dimethoxyphenyl)-2-propenamide] yielded a melting point of 196.4 to 197.6 °C.
For `NC(=Nc1ccc(CCNCc2ccc3cccc(O)c3n2)cc1)c1cccs1` [Example 59, N′-[4-(2-{[(8-hydroxy-2-quinolinyl)methyl]amino}ethyl)phenyl]-2-thiophenecarboximidamide], the melting point is more than 230 °C.
As for `I.NC(=Nc1ccc(CCNCC=Cc2ccccc2)cc1)c1cccs1` [Example 60, N′-[4-(2-{[3-phenyl-2-propenyl]amino}ethyl)phenyl]-2-thiophenecarboximidamide hydroiodide], the figure is 151 to 153 °C.
